Assay results: ChEMBL document CHEMBL1201862, “PubChem BioAssay data set” (2004)
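Briefly, cells in 96-well plates were exposed to five compound concentrations for 48 h, and endpoints were estimated by linear interpolation. Here, GI50 denotes the concentration required for 50% inhibition of growth.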 Calls of active or inactive are those of the source. No stated cut-off is given here; in the data, active = GI50 up to about 1.1 µM and inactive = higher.

Experiments:
Assay in all cases: DTP human tumour cell line panel, 48 h
[1] = system: RXF 393
[2] = system: LXFL 529
[3] = system: OVCAR-8
[4] = system: M14
[5] = system: KM12
[6] = system: SW-620
[7] = system: CCRF-CEM
[8] = system: M19-MEL
[9] = system: LOX IMVI
[10] = system: NCI-H460
[11] = system: SNB-75
[12] = system: DLD-1
[13] = system: 786-0
[14] = system: K562
[15] = system: KM-20L2
[16] = system: HCC 2998
[17] = system: NCI-H226
[18] = system: SK-OV-3
[19] = system: OVCAR-5
[20] = system: COLO 205
[21] = system: ACHN
[22] = system: SF-268
[23] = system: OVCAR-3
[24] = system: SF-539
[25] = system: HOP-18
[26] = system: SNB-19
[27] = system: SNB-78
[28] = system: OVCAR-4
[29] = system: NCI-H522
[30] = system: SF-295
[31] = system: HL-60
[32] = system: IGROV-1
[33] = system: TK-10
[34] = system: SK-MEL-28
[35] = system: U-251
[36] = system: NCI-H23
[37] = system: SK-MEL-2
[38] = system: UACC-62
[39] = system: HT-29
[40] = system: DMS-273
[41] = system: UO-31
[42] = system: SK-MEL-5
[43] = system: RPMI-8226
[44] = system: HCT-116
[45] = system: HCT-15
[46] = system: HOP-92
[47] = system: HOP-62
[48] = system: CAKI-1
[49] = system: Malme-3M
[50] = system: MOLT-4
[51] = system: SN12C
[52] = system: A549
[53] = system: DMS-114
[54] = system: SR
[55] = system: UACC-257
[56] = system: A498
[57] = system: XF498
[58] = system: EKVX

Question: Which results are given for `N=C(N)C1=C(O)NC(=O)N(C2CCCCC2)C1`?
Answer: GI50 [1]: > 100 µM (inactive); GI50 [2]: > 100 µM (inactive); GI50 [3]: > 100 µM (inactive); GI50 [4]: > 100 µM (inactive); GI50 [5]: > 100 µM (inactive); GI50 [6]: > 100 µM (inactive); GI50 [7]: > 100 µM (inactive); GI50 [8]: > 100 µM (inactive); GI50 [9]: > 100 µM (inactive); GI50 [10]: > 100 µM (inactive); GI50 [11]: > 100 µM (inactive); GI50 [12]: > 100 µM (inactive); GI50 [13]: > 100 µM (inactive); GI50 [14]: > 100 µM (inactive); GI50 [15]: > 100 µM (inactive); GI50 [16]: > 100 µM (inactive); GI50 [17]: > 100 µM (inactive); GI50 [18]: > 100 µM (inactive); GI50 [19]: > 100 µM (inactive); GI50 [20]: > 100 µM (inactive); GI50 [21]: > 100 µM (inactive); GI50 [22]: > 100 µM (inactive); GI50 [23]: > 100 µM (inactive); GI50 [24]: > 100 µM (inactive); GI50 [25]: > 100 µM (inactive); GI50 [26]: > 100 µM (inactive); GI50 [27]: > 100 µM (inactive); GI50 [28]: > 100 µM (inactive); GI50 [29]: > 100 µM (inactive); GI50 [30]: > 100 µM (inactive); GI50 [31]: > 100 µM (inactive); GI50 [32]: > 100 µM (inactive); GI50 [33]: > 100 µM (inactive); GI50 [34]: > 100 µM (inactive); GI50 [35]: > 100 µM (inactive); GI50 [36]: > 100 µM (inactive); GI50 [37]: > 100 µM (inactive); GI50 [38]: > 100 µM (inactive); GI50 [39]: > 100 µM (inactive); GI50 [40]: > 100 µM (inactive); GI50 [41]: > 100 µM (inactive); GI50 [42]: > 100 µM (inactive); GI50 [43]: > 100 µM (inactive); GI50 [44]: > 100 µM (inactive); GI50 [45]: > 100 µM; GI50 [46]: > 100 µM (inactive); GI50 [47]: > 100 µM (inactive); GI50 [48]: > 100 µM (inactive); GI50 [49]: > 100 µM (inactive); GI50 [50]: > 100 µM (inactive); GI50 [51]: > 100 µM (inactive); GI50 [52]: > 100 µM (inactive); GI50 [53]: > 100 µM (inactive); GI50 [54]: > 100 µM (inactive); GI50 [55]: > 100 µM (inactive); GI50 [56]: > 100 µM (inactive)

Question: Which results are given for `C#CCn1c(=O)c2cccnc2n(CC#C)c1=O`?
Answer: GI50 [1]: > 100 µM (inactive); GI50 [2]: > 100 µM (inactive); GI50 [4]: > 100 µM (inactive); GI50 [5]: > 100 µM (inactive); GI50 [6]: > 100 µM (inactive); GI50 [7]: > 100 µM (inactive); GI50 [9]: > 100 µM (inactive); GI50 [10]: > 100 µM (inactive); GI50 [11]: > 100 µM (inactive); GI50 [12]: > 100 µM (inactive); GI50 [13]: > 100 µM (inactive); GI50 [16]: > 100 µM (inactive); GI50 [17]: > 100 µM (inactive); GI50 [18]: > 100 µM (inactive); GI50 [19]: > 100 µM (inactive); GI50 [20]: > 100 µM (inactive); GI50 [21]: > 100 µM (inactive); GI50 [22]: > 100 µM (inactive); GI50 [25]: > 100 µM (inactive); GI50 [26]: > 100 µM (inactive); GI50 [27]: > 100 µM (inactive); GI50 [28]: > 100 µM (inactive); GI50 [29]: > 100 µM (inactive); GI50 [30]: > 100 µM (inactive); GI50 [31]: > 100 µM (inactive); GI50 [33]: > 100 µM (inactive); GI50 [34]: > 100 µM (inactive); GI50 [35]: > 100 µM (inactive); GI50 [36]: > 100 µM (inactive); GI50 [37]: > 100 µM (inactive); GI50 [39]: > 100 µM (inactive); GI50 [40]: > 100 µM (inactive); GI50 [42]: > 100 µM (inactive); GI50 [43]: > 100 µM (inactive); GI50 [44]: > 100 µM (inactive); GI50 [45]: > 100 µM; GI50 [57]: > 100 µM (inactive); GI50 [46]: > 100 µM (inactive); GI50 [47]: > 100 µM (inactive); GI50 [48]: > 100 µM (inactive); GI50 [49]: > 100 µM (inactive); GI50 [50]: > 100 µM (inactive); GI50 [51]: > 100 µM (inactive); GI50 [52]: > 100 µM (inactive); GI50 [54]: > 100 µM (inactive); GI50 [55]: > 100 µM (inactive)

Question: Which GI50 [2] does the source give for `Cc1ccc(S(=O)(=O)C(C#N)c2nc3ccccc3nc2N2CCOCC2)cc1` (stereo not given) here?
Answer: Its GI50 is 27.9 µM (inactive).

Question: What about the GI50 [3] of the same compound?
Answer: Its GI50 is > 10 µM (inactive).

Question: And the GI50 [4]?
Answer: The GI50 was 44.2 µM (inactive).

Question: And the GI50 [5]?
Answer: The GI50 was 18.3 µM (inactive).

Question: And the GI50 [6]?
Answer: Its GI50 is 26.9 µM (inactive).

Question: What about the GI50 [7] of the same compound?
Answer: The GI50 was 13.9 µM (inactive).

Question: What about the GI50 [8] of the same compound?
Answer: The GI50 was 26.7 µM (inactive).

Question: And the GI50 [9]?
Answer: The GI50 was 16.6 µM (inactive).

Question: And the GI50 [10]?
Answer: The GI50 was 17.9 µM (inactive).

Question: And the GI50 [11]?
Answer: The GI50 was 22.8 µM (inactive).

Question: And the GI50 [12]?
Answer: The GI50 was 27.3 µM (inactive).

Question: What about the GI50 [13] of the same compound?
Answer: Its GI50 is 30.2 µM (inactive).

Question: And the GI50 [14]?
Answer: Its GI50 is > 10 µM (inactive).

Question: What about the GI50 [15] of the same compound?
Answer: Its GI50 is 33.4 µM (inactive).

Question: And the GI50 [16]?
Answer: The GI50 was 14.1 µM (inactive).

Question: What about the GI50 [17] of the same compound?
Answer: Its GI50 is > 100 µM (inactive).

Question: What about the GI50 [18] of the same compound?
Answer: The GI50 was 61.5 µM (inactive).

Question: And the GI50 [19]?
Answer: Its GI50 is > 100 µM (inactive).

Question: What about the GI50 [20] of the same compound?
Answer: Its GI50 is 30.3 µM (inactive).

Question: And the GI50 [21]?
Answer: The GI50 was 30.3 µM (inactive).

Question: What about the GI50 [22] of the same compound?
Answer: The GI50 was 28.6 µM (inactive).

Question: What about the GI50 [23] of the same compound?
Answer: The GI50 was 33.8 µM (inactive).

Question: And the GI50 [24]?
Answer: The GI50 was 38.8 µM (inactive).

Question: What about the GI50 [58] of the same compound?
Answer: Its GI50 is > 100 µM (inactive).

Question: And the GI50 [26]?
Answer: Its GI50 is 28.6 µM (inactive).

Question: And the GI50 [27]?
Answer: Its GI50 is 3.09 µM (inactive).

Question: What about the GI50 [28] of the same compound?
Answer: The GI50 was 20.5 µM (inactive).

Question: And the GI50 [29]?
Answer: Its GI50 is 18.7 µM (inactive).

Question: And the GI50 [31]?
Answer: Its GI50 is > 10 µM (inactive).

Question: And the GI50 [32]?
Answer: The GI50 was 13.6 µM (inactive).

Question: What about the GI50 [33] of the same compound?
Answer: Its GI50 is 56.6 µM (inactive).

Question: What about the GI50 [34] of the same compound?
Answer: Its GI50 is 23.4 µM (inactive).

Question: And the GI50 [35]?
Answer: Its GI50 is 18.7 µM (inactive).

Question: What about the GI50 [36] of the same compound?
Answer: The GI50 was 21.8 µM (inactive).

Question: And the GI50 [37]?
Answer: Its GI50 is 33.1 µM (inactive).

Question: And the GI50 [38]?
Answer: Its GI50 is 12.4 µM (inactive).

Question: And the GI50 [40]?
Answer: Its GI50 is 17.8 µM (inactive).

Question: And the GI50 [41]?
Answer: The GI50 was 32.1 µM (inactive).

Question: And the GI50 [42]?
Answer: The GI50 was 48.8 µM (inactive).

Question: What about the GI50 [43] of the same compound?
Answer: The GI50 was 22 µM (inactive).

Question: And the GI50 [44]?
Answer: Its GI50 is 18.2 µM (inactive).

Question: What about the GI50 [45] of the same compound?
Answer: The GI50 was 31 µM.

Question: And the GI50 [57]?
Answer: Its GI50 is 24.3 µM (inactive).

Question: What about the GI50 [47] of the same compound?
Answer: The GI50 was 20.5 µM (inactive).

Question: What about the GI50 [48] of the same compound?
Answer: Its GI50 is 25.6 µM (inactive).

Question: And the GI50 [49]?
Answer: Its GI50 is 27.5 µM (inactive).

Question: And the GI50 [50]?
Answer: Its GI50 is 19.2 µM (inactive).

Question: What about the GI50 [51] of the same compound?
Answer: Its GI50 is 28.2 µM (inactive).

Question: What about the GI50 [52] of the same compound?
Answer: The GI50 was 76 µM (inactive).

Question: And the GI50 [53]?
Answer: The GI50 was 22.5 µM (inactive).

Question: What about the GI50 [54] of the same compound?
Answer: Its GI50 is 28.1 µM (inactive).

Question: And the GI50 [55]?
Answer: Its GI50 is 33.8 µM (inactive).

Question: What about the GI50 [56] of the same compound?
Answer: The GI50 was 53.7 µM (inactive).
